tested on: HCT-8 cells; test: WST-1 cytotoxicity assay in HCT-8 cells; type: cell-based, human; details: 24 h, read-out: Mean IC50 ± SEM, Cytotoxicity
Procedure: Compounds were tested for cytotoxicity in human ileocecal colorectal adenocarcinoma cells (HCT-8) (ATCC CCL-244; RRID:CVCL_2478) by using the cell proliferation reagent WST-1 (Roche) according to the manufacturer’s protocol. The WST-1 assay is a quantitative colorimetric assay for measurement of metabolically active cells. This assay is based on the reduction of the tetrazolium salt (WST-1) by viable cells. About 5 × 10^4 HCT-8 cells were seeded per well in 96-well plates and grown overnight in 200 μL of RPMI 1640 medium (without phenol red; Gibco) supplemented with 2.5 g/L of glucose, 1 mM sodium pyruvate, 1.5 g/L of sodium bicarbonate, 10% heat-inactivated FBS (Gibco), and 1× antibiotic-antimycotic (Gibco) at 37°C with 5% CO2 in a humidified incubator. Upon reaching 80 to 90% confluence, cells were treated with various concentrations of the test compounds for 24 h. Control wells received equivalent volumes of DMSO used in the reconstituted compounds. After 24 h of culture, 10 μL of the WST-1 reagent was added to each well, and the plates were incubated in the dark for 1 h at 37°C with 5% CO2. The plates were well agitated, and 150 μL of the medium from each well was transferred to a new clear flat-bottomed black 96-well plate (Corning). The absorbance was read at a test wavelength of 440 nm and a reference wavelength of 690 nm using a multimode microplate reader (Spectra Max iD3; Molecular Devices, USA). All of the reactions were prepared in triplicate. The dose-response curves were generated by nonlinear regression analysis with GraphPad PRISM software using control-normalized data to determine the half-maximal cytotoxicity (IC50) concentrations.

In order of falling IC50:
1. CO[C@@H]1/C=C\O[C@]2(C)Oc3c(C)c(O)c4c(O)c(c(CN(C)C)c(O)c4c3C2=O)NC(=O)/C(C)=C\C=C[C@@H](C)[C@@H](O)[C@H](C)[C@@H](O)[C@H](C)[C@H](OC(C)=O)[C@@H]1C [NSC145612]  302 ± 9.33 µM
2. COc1ccc(-c2c(C)c(C(=O)O)nc(-c3ccc4c(O)c(OC)c5c(c4n3)=NC(C)(C)N=5)c2N)c(O)c1OC [NSC62709]  299 ± 6.27 µM
3. COc1cc(C)c2c(c1C=O)Oc1c(c(C)c(O)c3c1C(O)OC3=O)OC2=O (centres unmarked) [NSC87511]  172 ± 8.68 µM
4. CO[C@H]1/C=C/O[C@@]2(C)Oc3c(C)c(O)c4c(O)c(cc(O)c4c3C2=O)NC(=O)/C(C)=C\C=C\[C@H](C)[C@H](O)[C@@H](C)[C@@H](O)[C@@H](C)[C@H](OC(C)=O)[C@@H]1C [NSC133100]  102 ± 16.6 µM
5. CO[C@@H]1/C=C/O[C@@]2(C)Oc3c(C)c(O)c4c(c3C2=O)C(=N[C@@H]2CC[C@@H](O)O[C@H]2C)C=C(NC(=O)/C(C)=C\C(=O)[C@@H]2C[C@@H]2[C@H](O)[C@@H](C)[C@@H](O)[C@@H](C)[C@H](OC(C)=O)[C@@H]1C)C4=O [NSC177383]  85.5 ± 2.77 µM
